This is an account of results in ChEMBL document CHEMBL5247612, “Medicinal chemistry strategies targeting PRMT5 for cancer therapy” (Eur J Med Chem, 2022).

Test [1] addresses T1, Protein arginine N-methyltransferase 5 (Homo sapiens, UniProt O14744). Description: Inhibition of PRMT5 human PRMT5 using Biotinylated H4 derived peptide and [3H]-SAM as substrate by radioactive methylation assay.
The subject of test [2] is A-375. Description: Antiproliferation activity against human A-375 cells assessed as cell growth inhibition. It is filed as functional, cell-based.
Test [3] concerns the target T1, Protein arginine N-methyltransferase 5. Description: Inhibition of PRMT5 (unknown origin) assessed as enzymatic activity by AlphaLISA assay. Background: Bead proximity is the source of the signal in Alpha formats.
Test [4] has as its system A-375. Description: Anticancer activity against human A-375 cells in xenograft model assessed as tumor growth inhibition at 10 mg/kg, qd on a 4 day-on/3 day-off schedule for 26 days relative to control. The conditions noted are these: A-375, 624 h, time 26 day, read-out: TGI. It is filed as functional. (A xenograft is tissue or cells of one species grown in another, often human tumour cells in immunodeficient mice.)

Test [5] concerns the target T2, Protein arginine N-methyltransferase 1 (Homo sapiens, UniProt Q99873). Description: Inhibition of human PRMT1 by fluorescence-based SAHH-coupled assay.
Test [6] in a line: Inhibition of Trypanosoma brucei PRMT7 by fluorescence-based SAHH-coupled assay.
For test [7], the target named is T1, Protein arginine N-methyltransferase 5. Description: Inhibition of human PRMT5 using H4R3 S1ac and [3H]-SAM as substrate by AlphaLISA assay.
The target is the same in test [8]. Description: Inhibition of PRMT5 (unknown origin) by AlphaLISA assay.
For test [9] the target is unchanged. Description: Inhibition of PRMT5 human PRMT5 using [3H]-SAM as substrate by radioactive methylation assay.
The subject of another test is Z-138. Description: Antiproliferative activity against human Z138 cells assessed as cell growth inhibition measured every 4 days upto 8 days by Cell Titer-Glo Luminescent Cell Viability kit method. It is filed as functional, cell-based.
For test [10], the target named is T2, Protein arginine N-methyltransferase 1. Description: Inhibition of human PRMT1 using H4R3 S1ac and [3H]-SAM as substrate by AlphaLISA assay.
For test [11], the target named is T1, Protein arginine N-methyltransferase 5. Description: Inhibition of human PRMT5 by fluorescence-based SAHH-coupled assay.
Test [12] concerns the target T3, Histone-arginine methyltransferase CARM1 (Homo sapiens, UniProt Q86X55).
T3 sequence (Q86X55 whole entry): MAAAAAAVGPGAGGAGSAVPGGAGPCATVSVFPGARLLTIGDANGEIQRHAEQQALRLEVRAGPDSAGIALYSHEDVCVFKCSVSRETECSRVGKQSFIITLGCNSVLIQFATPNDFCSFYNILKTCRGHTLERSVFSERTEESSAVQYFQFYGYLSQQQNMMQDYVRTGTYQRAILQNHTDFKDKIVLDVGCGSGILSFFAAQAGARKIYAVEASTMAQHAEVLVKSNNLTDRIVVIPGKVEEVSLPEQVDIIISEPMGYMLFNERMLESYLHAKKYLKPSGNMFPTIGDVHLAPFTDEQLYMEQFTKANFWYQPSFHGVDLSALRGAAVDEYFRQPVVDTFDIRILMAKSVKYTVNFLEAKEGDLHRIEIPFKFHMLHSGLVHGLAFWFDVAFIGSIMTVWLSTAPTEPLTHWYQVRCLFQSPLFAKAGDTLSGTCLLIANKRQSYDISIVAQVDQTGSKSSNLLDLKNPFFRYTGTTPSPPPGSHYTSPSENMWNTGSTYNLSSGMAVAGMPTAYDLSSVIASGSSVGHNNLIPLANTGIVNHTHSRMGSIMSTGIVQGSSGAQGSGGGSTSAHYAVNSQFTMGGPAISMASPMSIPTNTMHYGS
Description: Inhibition of human PRMT4 by fluorescence-based SAHH-coupled assay.

T1 sequence (O14744 whole entry): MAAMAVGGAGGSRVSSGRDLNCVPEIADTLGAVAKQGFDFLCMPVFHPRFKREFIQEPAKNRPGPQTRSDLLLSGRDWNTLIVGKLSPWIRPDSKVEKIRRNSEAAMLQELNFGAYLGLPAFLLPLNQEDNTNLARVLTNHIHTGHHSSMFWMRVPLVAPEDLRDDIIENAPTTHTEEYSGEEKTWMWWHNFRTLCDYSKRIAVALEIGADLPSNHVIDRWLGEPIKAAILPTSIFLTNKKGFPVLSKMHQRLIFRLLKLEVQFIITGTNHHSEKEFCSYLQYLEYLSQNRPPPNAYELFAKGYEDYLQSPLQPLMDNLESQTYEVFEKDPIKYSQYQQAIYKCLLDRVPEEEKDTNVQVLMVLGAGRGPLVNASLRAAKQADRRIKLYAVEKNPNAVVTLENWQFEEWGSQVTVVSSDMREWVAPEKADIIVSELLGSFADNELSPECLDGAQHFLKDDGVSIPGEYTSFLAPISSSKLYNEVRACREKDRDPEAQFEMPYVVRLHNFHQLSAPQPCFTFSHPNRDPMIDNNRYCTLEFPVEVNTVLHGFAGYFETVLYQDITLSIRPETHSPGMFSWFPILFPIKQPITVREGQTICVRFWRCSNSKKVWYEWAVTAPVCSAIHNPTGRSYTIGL
T2 sequence (Q99873 whole entry): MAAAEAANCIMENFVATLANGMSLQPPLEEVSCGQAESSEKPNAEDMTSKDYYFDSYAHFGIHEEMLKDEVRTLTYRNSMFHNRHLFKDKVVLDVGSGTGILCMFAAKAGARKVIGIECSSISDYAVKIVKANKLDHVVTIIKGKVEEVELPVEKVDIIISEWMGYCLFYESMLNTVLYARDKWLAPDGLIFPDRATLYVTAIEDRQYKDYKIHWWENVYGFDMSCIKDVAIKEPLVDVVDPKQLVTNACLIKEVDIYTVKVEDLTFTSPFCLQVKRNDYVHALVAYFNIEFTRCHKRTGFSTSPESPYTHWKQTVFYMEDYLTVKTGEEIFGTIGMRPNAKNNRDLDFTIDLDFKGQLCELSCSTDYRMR

By IC50 is commonly meant the concentration at which inhibition is half-maximal. For `Cc1ccc2[nH]c3c(c2c1)CCCC3NCCCOc1ccc(F)cc1` (centres undefined), in test [1], the IC50 turned out to be 1700 nM. For `Nc1ncnc2c1ccn2[C@@H]1O[C@H]([C@H](O)c2ccccc2)[C@@H](O)[C@H]1O`, in the test with A-375 [2], the IC50 is 31.5 nM. With `COC(=O)c1ccccc1NC(=O)CCN1CCc2ccccc2C1`, the IC50 in test [3] worked out at 34100 nM.

Regarding `Nc1ncnc2c1ccn2[C@@H]1O[C@H]([C@H](O)c2ccc(Cl)cc2)[C@@H](O)[C@H]1O`, in the test with A-375 [4], the inhibition in vivo at 10 mg/kg turned out to be 64%. For the same compound, the IC50 in the test on A-375 [2] was 10.8 nM.

With `CCN(CC)CCNC1CCCc2c1[nH]c1ccc(C)cc21` (centres undefined), the 50% inhibitory concentration (IC50) in [1] was 5700 nM. For the compound `C[C@@H]1[C@H](O)[C@@H](CSCCCNC(=N)NCCCC[C@@H](N)C(N)=O)O[C@H]1n1cnc2c(N)ncnc21`, the IC50 in [5] is 3000 nM; in test [6], 20000 nM. Take `COc1cc(Br)cc(/C=C2\SC(c3ccc(C)cc3)=NC2=O)c1O`: in test [7], 6600 nM corresponded to half-maximal inhibition (IC50). `COc1cccc(/C=N/c2ccc(O)c(-c3nc4cc(C)ccc4o3)c2)c1O`: in [8], the concentration for half-maximal inhibition (IC50) is 8100 nM.

Consider `CCOC(=O)c1c(NC(=O)CSc2nnc3c4ccccc4n(CCc4ccccc4)c3n2)sc2c1CCN(C)C2`, for which the IC50 in [8] was determined as 6500 nM. Same read-out and setting: the value for `CCc1ccc2oc(-c3cc(/N=C/c4cccc(C)c4O)ccc3O)nc2c1` was 60000 nM. Consider `Nc1cccc(-c2cn(CC(O)CN3CCc4ccccc4C3)nn2)c1` (centres undefined), for which the IC50 in test [9] amounted to 34000 nM.

For `N=C(N)NCCC[C@H](N)C(=O)NCC(=O)N[C@H](CCNC(=N)NCSC[C@H]1O[C@@H](n2cnc3c(N)ncnc32)[C@H](O)[C@@H]1O)C(N)=O`, the results for the IC50 in test [5] and in test [6] were 1700 nM and 590 nM, respectively.

In turn, `COc1ccc(OC)c(NC(=O)CSc2nnc3c4ccccc4c4ccccc4c3n2)c1` had an IC50 in test [8] of 27000 nM. On to `OC(CN1CCc2ccccc2C1)Cn1cc(-c2cccc(NC3CCOCC3)c2)nn1` (centres undefined), for which, in test [9], the IC50 was 2400 nM. In the case of `OC(CN1CCc2ccccc2C1)Cn1cc(-c2cccc(NC3CCC3)c2)nn1` (centres undefined), the IC50 in the test with Z-138 turned out to be 2600 nM; in test [9], 720 nM. Consider `Cc1ccc(C2=NC(=O)/C(=C/c3ccc(O)c(O)c3)S2)cc1`, for which the values for the IC50 in [7] and in [10] were 770 nM and 10000 nM, respectively. On to `C[C@@](O)(c1ccc(Cl)cc1)[C@H]1O[C@@H](n2ccc3c(N)ncnc32)[C@H](O)[C@@H]1O`, for which the IC50 in the test with A-375 [2] came out at 44 nM. For the compound `O=[N+]([O-])c1cccc(-c2cn(CC(O)CN3CCc4ccccc4C3)nn2)c1` (centres undefined), the IC50 in test [9] amounted to 5500 nM. With `COC(=O)c1ccccc1NC(=O)CSc1nc2ccc(CO)cc2[nH]1`, in test [1], the 50% inhibitory concentration (IC50) worked out at 330 nM. `COc1cc(Cl)cc(/C=C2\SC(c3ccc(C)cc3)=NC2=O)c1O`: in test [7], the half-maximal inhibitory concentration (IC50) was determined as 13900 nM. Regarding `N=C(N)NCCC[C@H](N)C(=O)NCC(=O)N[C@H](CCNC(=N)NCCSC[C@H]1O[C@@H](n2cnc3c(N)ncnc32)[C@H](O)[C@@H]1O)C(N)=O`, the IC50 in test [5] came to 5900 nM; in [6] it was 830 nM; in [11], 0.42 nM; in test [12] it was 2.8 nM.
